Results as given in US7579353B2, “Pyridinone derivatives against malaria” (Glaxo Group Limited, priority 2005, dated 2009).
In brackets after ≈: the same amount, converted by molar mass. Where two headings read alike, the source gives them in different places.

Key:
Plasmodium falciparum = experiment: In vitro anti-malarial activity against Plasmodium falciparum, IC50 assay / [3H]-hypoxanthine incorporation assay; type: cell-based; settings: Erythrocyte, parasitized red blood cells, 48 hours
Protocol: In Vitro Anti-malarial Activity Against Plasmodium falciparum
IC50 Assay/[^3H]-Hypoxanthine Assay
Plasmodium falciparum strains.
The culture medium comprised RPMI 1640 with 25 mM HEPES, sodium bicarbonate and glutamine (GIBCO™ cat. ref.: 52400), supplemented with 10% of pooled human sera AB (Irvine Scientific, cat. ref.: 5009) and HT supplement (0.15 mM hypoxanthine and 24 μM thymidine), (GIBCO™ cat. ref.: 41065). Human sera were decomplemented 30 min. at 56° C., aliquoted and stored frozen at −20° C. until use in this culture medium.
Red blood cells O+ stock suspensions were prepared from whole blood bags coming from incomplete blood donation, provided by the Spanish Red Cross (<25 days after sampling). This “whole blood” was aliquoted and stored at 4° C.
To prepare red blood cells for the assay, the whole blood was centrifuged and washed 3 times with RPMI without serum. The upper phase, containing white blood cells was removed. The washed red blood cells were kept as a 50% suspension in complete medium. The prepared cells were stored at 4° C. and were employed in the assay at any time up to 4 days after preparation.
Test compounds were dissolved at 2 mg/ml in 100% DMSO on the day of the assay. If necessary, complete dissolution was achieved by gentle heating (the mixture was heated at a temperature <37° C.) and sonication (sonication bath).
For IC50 determinations, 10 serial 2-fold dilutions were prepared in complete medium in the presence of a constant amount of DMSO.
Plasmodium falciparum strains were maintained in complete medium at an hematocrit of 5% in continuous culture using a method adapted from Trager and Jensen (1, 2).
The parasitemia was calculated by counting the percentage of parasitized erythrocytes by optical microscopy. Thin films of blood were made every day from each culture flask, fixed with methanol and stained for 10 min. in Giemsa (Merck, cat ref.: 1.09204) at 10% in buffered water pH 7.2. The glass slides were observed and counted with an optical microscope (Nikon, Eclipse E200) equipped with a 100× immersion oil objective.
The culture was maintained at an hematocrit of 5%, with a daily change of medium and was diluted when parasitemia had reached about 5%.
[^3H] Hypoxanthine incorporation assay was conducted using a method adapted from Desjardins et al. (3). The assays were performed in 96 wells flat bottom microplates.
1. Serial dilutions of the test compounds (50 μl of a 5× solution/well) were deposited in duplicate. Compounds of the invention were tested in this assay. Chloroquine and Atovaquone were used as control compounds for each assay.
3. [^3H]-Hypoxanthine (Amersham Biosciences, cat. ref.: TRK74) was added extemporaneously to the inoculum suspension at a concentration of 1 μCi/ml (equating to […]). 200 μl of the resulting suspension was distributed into each well (other than the control well H12 described below) leading to a final volume of 250 μl per well, at 2% of hematocrit and 0.5% of parasitemia/well.
4. In each plate, 2 columns were reserved for control wells: • Column 11: Positive control wells: PRBCs with 0.2% DMSO—(i) to determine DMSO solvent effect on parasite growth (at a final concentration of 0.2%) and (ii) to compare with cultures treated with test compounds. • Column 12 (comprising wells A12-H12): • A12-D12—Background value wells: Uninfected RBCs—blank control to obtain the background reading from RBCs without parasites. • E12-G12—Solvent effect wells: PRBCs without DMSO—to determine DMSO solvent effect on PRBCs by comparing these wells with column 11 wells. • H12-Non-radioactive well: PRBCs with cold hypoxanthine—(i) to carry out a thin blood film to determine parasitemia value after incubation by microscopy and (ii) to ensure that the parasites have grown properly during the assay. (200 μl of inoculum suspension was prepared as described above (Items 2 and 3) but with non-tritiated hypoxanthine instead of [3H]-hypoxanthine, then added to this well to a final volume of 250 μl). […]

[1] = Compound solubility determination (gross and equilibrium solubility; FaSSIF, FeSSIF, pH 7.4 PBS, pH 1.0 0.1N HCl, pH 4.5 sodium citrate); type: physicochemical; settings: thermodynamic from solid
Protocol: Compound Solubility Determination
An amount of 3 mg solid compound with LC-MS purity ≧95% was required. This amount was split between 3 different glass vials (1.8 ml volume each), placing 1 mg compound into each one.
Organic solvents of HPLC grade were used. Ultra pure water (Milli-Q grade) was used. Buffers were prepared with ultra pure water and filtered using 0.45μ cameo filters. The compositions of each solvent employed in this assay are described below (part III).
2. Determination of Equilibrium Solubility (Assuming Chemical Stability in the Desired Solvent is not a Problem).
For each of the three vial samples prepared as described above, in which the amount of compound was totally dissolved, the following procedure was subsequently carried out: • a) A small amount (approx. 0.1 mg) of additional solid compound was added to the vial to maintain an excess of the compound in the mixture in the form of undissolved solid. • b) The samples were magnetically stirred for 24 hr. If required, additional solid compound (0.1 mg) was added to maintain excess of it and then the samples were stirred again. • c) Then the samples were filtered (Millipore Milex filters nylon 0.2 um) and three aliquots were taken (one from each of the three vials) and analysed by LC-MS. • d) The pH of the final solution in each sample was measured with a pH-meter (WTW pH330i and a pH-electrode Sentix 41).
3. LC-MS Assay for Analytical Quantification
All filtered aliquots were analysed by LC-MS. The analysis was carried out with a Luna 5 μC18 (2) column 4.6×150 mm, using a HP1100 HPLC instrument interfaced with a Waters ZMD-2000 MS spectrometer. The concentration of the final sample as prepared above was calculated from that of a reference calibration curve obtained from serial dilutions of a 2 mM solution of the compound under investigation in DMSO (Aldrich cat. ref.: 27685-5) stock solution.
The analysis of all LC-MS data was performed with MassLynx 3.4 software. Statistical and graphic analysis of data was performed using Microsoft Excel. The concentration (uM) and solubility (ug/ml) for each compound was calculated using the peak areas from the sample and those from the calibration curve.
A) FaSSIF is a solvent which simulates the Fasted State of the Intestinal Fluid. (FaSSIF: Fasted State Simulated Intestinal Fluid).
B) FeSSIF is a solvent which simulates the Fed State of the Intestinal Fluid. (FeSSIF: Fed State Simulated Intestinal Fluid).
C) Solubility at pH 7.4 was determined in phosphate buffered saline (PBS) (Fluka cat. ref: 79383)
D) Solubility at pH 1.0 was determined in 0.1N HCl solution (Scharlau AL0744010C)
E) Solubility at pH 4.5 was determined in sodium citrate 0.5M solution. (Aldrich 25, 127-5)

[2] = 0.1N HCl solution, simulated gastric fluid, pH 1 (HCl), read-out: Solubility at pH 1 (HCl)
[3] = FaSSIF (fasted state simulated intestinal fluid), fassif, read-out: Solubility in FaSSIF
[4] = FeSSIF (fed state simulated intestinal fluid), fessif, read-out: Solubility in FeSSIF
[5] = phosphate buffered saline (PBS), aqueous buffer, pH 7.4 (PBS), read-out: Solubility at pH 7.4 (PBS)
[6] = sodium citrate 0.5M solution, aqueous buffer, pH 4.5 (Na citrate), read-out: Solubility at pH 4.5 (Na citrate)

Cc1[nH]c(C)c(-c2ccc(-c3cccc(OC(F)(F)F)c3)nc2)c(=O)c1Cl [Example 28, 5-Chloro-2,6-dimethyl-6′-{3-[(trifluoromethyl)oxy]phenyl}-3,3′-bipyridin-4(1H)-one]
IC50 (Plasmodium falciparum): < 0.125 mg/L

Cc1[nH]c(C)c(-c2ccc(OCc3cc(C(F)(F)F)cc(C(F)(F)F)c3)nc2)c(=O)c1Cl [Example 12, 5-Chloro-2,6-dimethyl-6′-{[3,5-bis(trifluoromethyl)benzyl]oxy}-3,3′-bipyridin-4(1H)-one]
IC50 (Plasmodium falciparum): < 0.125 mg/L

Cc1[nH]c(C)c(-c2ccc(Oc3cccc(C(F)(F)F)c3)cc2)c(=O)c1Cl [comparator Z]
solubility at 24 h ([1]; aqueous buffer, pH 4.5 (Na citrate), read-out: Solubility at pH 4.5 (Na citrate)): < 1 µg/mL | solubility at 24 h ([1]; aqueous buffer, pH 7.4 (PBS), read-out: Solubility at pH 7.4 (PBS)): < 1 µg/mL | solubility at 24 h ([1]; fassif, read-out: Solubility in FaSSIF): < 1 µg/mL | solubility at 24 h ([1]; fessif, read-out: Solubility in FeSSIF): 1 to 5 µg/mL (≈ 2.54 to 12.7 µM) | solubility at 24 h ([1]; simulated gastric fluid, pH 1 (HCl), read-out: Solubility at pH 1 (HCl)): < 1 µg/mL

Cc1[nH]c(C)c(-c2ccc(-c3ccc(OC(F)(F)F)cc3)nc2)c(=O)c1Cl [Example 27, 5-Chloro-2,6-dimethyl-6′-{4-[(trifluoromethyl)oxy]phenyl}-3,3′-bipyridin-4(1H)-one]
IC50 (Plasmodium falciparum): < 0.125 mg/L

Cc1[nH]c(C)c(-c2ccc(OCc3ccccc3C(F)(F)F)nc2)c(=O)c1Cl [Example 11, 5-Chloro-2,6-dimethyl-6′-{[2-(trifluoromethyl)benzyl]oxy}-3,3′-bipyridin-4(1H)-one]
IC50 (Plasmodium falciparum): < 0.125 mg/L

Cc1[nH]c(C)c(-c2ccccn2)c(=O)c1Br [Compound W, 5′-Bromo-2′,6′-dimethyl-2,3′-bipyridin-4′-(1′H)-one, reference compound]
IC50 (Plasmodium falciparum): 0.5 mg/L (≈ 1.79 µM)

Cc1[nH]c(C)c(-c2ccc(CCc3cccc(C(F)(F)F)c3)nc2)c(=O)c1Br [Example 43, 5-Bromo-2,6-dimethyl-6′-{2-[3-(trifluoromethyl)phenyl]ethyl}-3,3′-bipyridin-4(1H)-one]
IC50 (Plasmodium falciparum): < 0.125 mg/L

Cc1[nH]c(C)c(-c2ccc(-c3cccc(C(F)(F)F)c3)nc2)c(=O)c1Cl [Example 31, 5-Chloro-2,6-dimethyl-6′-{3-[trifluoromethyl]phenyl}-3,3′-bipyridin-4(1H)-one]
IC50 (Plasmodium falciparum): < 0.125 mg/L

Cc1[nH]c(C)c(-c2ccc(-c3ccccc3C(F)(F)F)nc2)c(=O)c1Cl [Example 32, 5-Chloro-2,6-dimethyl-6′-{2-[trifluoromethyl]phenyl}-3,3′-bipyridin-4(1H)-one]
IC50 (Plasmodium falciparum): < 0.125 mg/L

Cc1[nH]c(C)c(-c2ccc(OCc3ccc(C(F)(F)F)cc3)nc2)c(=O)c1Br [Example 3, 5-Bromo-2,6-dimethyl-6′-{[4-(trifluoromethyl)benzyl]oxy}-3,3′-bipyridin-4(1H)-one]
IC50 (Plasmodium falciparum): < 0.125 mg/L

Cc1[nH]c(C)c(-c2ccc(-c3ccc(C(F)F)cc3)nc2)c(=O)c1Cl [Example 63, 5-Chloro-2,6-dimethyl-6′-{4-[difluoromethyl]phenyl}-3,3′-bipyridin-4(1H)-one]
IC50 (Plasmodium falciparum): < 0.125 mg/L

Cc1[nH]c(C)c(-c2ccc(OCc3cc(F)cc(F)c3)nc2)c(=O)c1Br [Example 7, 5-Bromo-6′-{[3,5-difluorobenzyl]oxy}-2,6-dimethyl-3,3′-bipyridin-4(1H)-one]
IC50 (Plasmodium falciparum): < 0.125 mg/L

CCCCCCCc1ccc(-c2c(C)[nH]c(C)c(Cl)c2=O)cn1 [Example 47, 5-Chloro-6′-(n-heptyl)-2,6-dimethyl-3,3′-bipyridin-4(1H)-one]
IC50 (Plasmodium falciparum): < 0.125 mg/L

Cc1[nH]c(C)c(-c2ccc(OCc3cc(C(F)(F)F)cc(C(F)(F)F)c3)nc2)c(=O)c1Br [Example 5, 5-Bromo-2,6-dimethyl-6′-{[3,5-bis(trifluoromethyl)benzyl]oxy}-3,3′-bipyridin-4(1H)-one]
IC50 (Plasmodium falciparum): < 0.125 mg/L

Cc1[nH]c(C)c(-c2ccc(C#Cc3ccc(C(F)(F)F)cc3)nc2)c(=O)c1Cl [Example 41, 5-Chloro-2,6-dimethyl-6′-{[4-(trifluoromethyl)phenyl]ethynyl}-3,3′-bipyridin-4(1H)-one]
IC50 (Plasmodium falciparum): < 0.125 mg/L

Cc1[nH]c(C)c(-c2ccc(-c3ccc(Cl)cc3)nc2)c(=O)c1Cl [Example 33, 5-Chloro-6′-(4-chlorophenyl)-2,6-dimethyl-3,3′-bipyridin-4(1H)-one]
IC50 (Plasmodium falciparum): < 0.125 mg/L

Cc1[nH]c(C)c(-c2ccc(-c3ccccc3OC(F)(F)F)nc2)c(=O)c1Cl [Example 29, 5-Chloro-2,6-dimethyl-6′-{2-[(trifluoromethyl)oxy]phenyl}-3,3′-bipyridin-4(1H)-one]
IC50 (Plasmodium falciparum): < 0.125 mg/L

Cc1[nH]c(C)c(-c2ccc(-c3ccc(OC(F)(F)F)cc3)nc2)c(=O)c1Cl.Cl [Example 38, 5-Chloro-2,6-dimethyl-6′-{4-[(trifluoromethyl)oxy]phenyl}-3,3′-bipyridin-4(1H)-one]
IC50 (Plasmodium falciparum): < 0.125 mg/L

Cc1[nH]c(C)c(-c2ccc(OCc3ccc(F)cc3)nc2)c(=O)c1Cl [Example 13, 5-Chloro-6′-{[4-fluorobenzyl]oxy}-2,6-dimethyl-3,3′-bipyridin-4(1H)-one]
IC50 (Plasmodium falciparum): < 0.125 mg/L

Cc1nc(C)c(-c2ccc(-c3ccc(Cl)cc3)cc2)c(O)c1Br [comparator X]
solubility at 24 h [1, 2]: < 1 µg/mL | solubility at 24 h [1, 3]: 5 to 10 µg/mL (≈ 12.9 to 25.7 µM) | solubility at 24 h [1, 4]: 5 to 10 µg/mL (≈ 12.9 to 25.7 µM) | solubility at 24 h [1, 5]: < 1 µg/mL | solubility at 24 h [1, 6]: < 1 µg/mL

Cc1[nH]c(C)c(-c2ccc(Oc3ccc(OC(F)(F)F)cc3)cc2)c(=O)c1Cl [comparator Y]
solubility at 24 h [1, 2]: < 1 µg/mL | solubility at 24 h [1, 3]: < 1 µg/mL | solubility at 24 h [1, 4]: 1 to 5 µg/mL (≈ 2.44 to 12.2 µM) | solubility at 24 h [1, 5]: < 1 µg/mL | solubility at 24 h [1, 6]: < 1 µg/mL
